Test results published in patent publication US20260159486A1, “BENZO[H]QUINAZOLINE-4-AMINE DERIVATIVES FOR THE TREATMENT OF CANCER” (Redona Therapeutics, Inc., priority 2021, published 2026).

How the values were obtained:
CAL-51 cells = assay: CAL-51 proliferation assay; type: cell-based; conditions: YO-PRO-1 Iodide readout
Procedure, shortened: (§1)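 Cells seeded at 750 per well, treated next day for 72 h at 37 °C with 0.5% final DMSO. Cell number read by YO-PRO-1 fluorescence after lysis, normalized to DMSO (100%) and time-zero cells (0%). GI50 from 4-parameter logistic fit, maximum constrained to 100%.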

[1] = tested on: phospho-SRSF6 in MDA-MB-468 cells; assay: Inhibition of phospho-SRSF6 levels in MDA-MB-468 cells (Western blot); type: cell-based; conditions: Homo sapiens, 2 hours, compared to DMSO control; for inhibition at 0.01 µM: 10 nM, read-out: >50% p-SRSF6 reduction at 10 nM; for inhibition at 0.1 µM: 100 nM, read-out: >50% p-SRSF6 reduction at 100 nM
Protocol: FIG. 1: FIG. 1 provides a representative Western blot showing reduction of phosphorylated-SRSF6 (P—SRSF6) in MDA-MB 468 cells by compounds of the invention. GAPDH was probed for by Western blotting to control for equal protein loading and for normalization of samples. The numbers below the blots show percent inhibition of the P—SRSF6 signal at 100 nM (A) or 10 nM (B) compared to DMSO control.
Assessment of Inhibition of Phospho-SRSF6 Levels in MDA-MB-468 Cells
MDA-MB-468 cells (ATCC, HTB-132) were cultured in DMEM (BioConcept cat. no. 1-26F03) supplemented with 10% FBS (Sigma cat. no. F9665), […] (Sigma cat. no. S8636), 1% Penicillin-Streptomycin (BioConcept cat. no. 4-01FOO-H). When cells reached a density of 70% o in 6-well plates (TPP cat. no. 92006), they were treated either with the test compound vehicle DMSO, or with experimental compounds at a final concentration of either 10 or 100 nM for 2 hours. Thereafter, the culture medium was removed and cells were collected by scraping in Lysis Buffer (20 mM Tris HCl pH7.5, 150 mM NaCl, 1 mM EGTA, 1 mM EDTA, 1% o Triton and 1% o NP-40) containing protease and phosphatase inhibitors (Halt™ Protease&Phosphatase inhibitor cocktail 100× ThermioScientific cat. no. 1861281) and 1 mM PMSF (Fluka cat. no. 93482). Cleared lysates were stored in Eppendorfftubes at −80° C. until use, and protein concentration in lysates was determined using Pierce 660 nm Protein Assay Reagent (ThermioScientific cat. no. 22660). 20 μg proteins were diluted in 4× Laemmli buffer (Biorad cat. no. 161-0747) containing 10% beta-mercaptoethanol, separated by SDS-PAGE using 10% gels, and then transferred to PVDF membranes (Trans Blot Turbo Transfer Pack BioRad cat. no. 1704156) by Trans-Blot® Turbo™ System semidry blotting methodology (BioRad). Primary antibodies were incubated in TBS-0.1% Tween-20 buffer containing 3% BSA Bovine Albumin Fr.V (Millipore cat. no. 81-053-3) overnight at 4° C. The following primary antibodies were used: Mouse anti-phosphoepitope SR proteins clone 1H4 (Millipore cat. no. MABE50) diluted 1:5000, and rabbit anti-GAPDH clone 14C10 (Cell Signaling cat. no. 2118S) to control for equal protein loading, diluted 1:2000. HRP-conjugated secondary antibodies were incubated one hour at room temperature diluted 1:5000 in TBS-0.1% Tween-20 buffer containing […] nonfat-dried bovine milk (Sigma cat. no. M7409). The following secondary antibodies were used: Goat anti-mouse-HRP (Jackson cat. no. 115-035-146) and goat anti-rabbit-HRP (Jackson cat. no. 111-035-144). Membranes were incubated with ECL Prime Western Blot Detection Reagent (Amersham cat. no. RPN2236) to detect specific signals using Fusion SOLO S device (Vilber Lourmat). Pixel intensity of the phopsho-SRSF6 (MW 55 kDa in reference to markers) and GAPDH (MW 37 kDa) signals in the Western blots were determined using Evolution-Capt image analysis software (v17.01, Vilber Lourmat). DMSO control was used to set the phospho-SRSF6 signal at baseline, phospho-SRSF6 signals for each sample were normalized by the respective GAPDH signals and percent intensity of P—SRSF6 signal at 10 and 100 nM compound compared to DMSO control was calculated (see FIG. 1).

MDA-MB-231 cells = assay: MDA-MB-231 proliferation assay; type: cell-based; conditions: YO-PRO-1 Iodide readout
Procedure, shortened: as §1

recombinant human CLK3 = molecular target: T1, recombinant human CLK3 (Homo sapiens, UniProt P49761); assay: CLK3 kinase assay (LANCE Ultra); type: biochemical; conditions: CLK3 0.5 nM, ATP 300 μM, 3 hours at 30° C.
T1 construct: purchased Thermo Fisher Scientific PV3826
Procedure, shortened: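 Recombinant human CLK3 (0.5 nM) with ULight-CREBtide (50 nM) and 300 μM ATP, 3 h at 30 °C in kinase buffer; EDTA stop, then Eu-anti-phospho-CREB antibody (2 nM, 1 h RT), TR-FRET read at 665/620 nm. Inhibition normalized to DMSO and no-ATP wells; IC50 from 4-parameter fit, ten 1:3 concentrations in duplicate.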

T1 sequence (P49761 whole entry): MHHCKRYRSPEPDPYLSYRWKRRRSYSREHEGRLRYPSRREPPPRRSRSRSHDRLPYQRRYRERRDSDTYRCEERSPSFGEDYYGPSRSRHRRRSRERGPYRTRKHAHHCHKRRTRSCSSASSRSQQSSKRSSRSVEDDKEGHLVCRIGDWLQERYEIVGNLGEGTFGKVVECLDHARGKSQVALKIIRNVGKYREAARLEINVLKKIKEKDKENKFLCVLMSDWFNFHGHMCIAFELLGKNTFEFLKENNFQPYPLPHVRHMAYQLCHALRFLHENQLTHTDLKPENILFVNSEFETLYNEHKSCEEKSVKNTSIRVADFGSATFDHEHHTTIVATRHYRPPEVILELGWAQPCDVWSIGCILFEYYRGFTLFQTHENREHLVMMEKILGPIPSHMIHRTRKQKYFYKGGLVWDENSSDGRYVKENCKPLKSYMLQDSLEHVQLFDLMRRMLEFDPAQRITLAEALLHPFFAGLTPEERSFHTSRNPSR

Row | SMILES | GI50 (CAL-51 cells; Homo sapiens, CAL-51, 72 h) | inhibition at 0.01 µM [1] | inhibition at 0.1 µM [1] | GI50 (MDA-MB-231 cells; Homo sapiens, MDA-MB-231, 72 h) | IC50 (recombinant human CLK3) | GI50 (CAL-51 cells; 72 hours) | GI50 (MDA-MB-231 cells; 72 hours)
1 | CN(CCC#N)c1c(O[C@H]2CC[C@H](N)CC2)ccc2c1CC(C)(C)c1c(N)ncnc1-2 [Example 46, 3-[[4-amino-8-(trans-4-aminocyclohexoxy)-5,5-dimethyl-6H-benzo[h]quinazolin-7-yl]-methyl-amino]propanenitrile] | < 100 nM | > 50% | > 50% | < 100 nM | < 30 nM |  | 
2 | CN(CCO)c1c(O[C@H]2CC[C@H](N)CC2)ccc2c1CC(C)(C)c1c(N)ncnc1-2 [Example 12, 2-[[4-amino-8-(trans-4-aminocyclohexoxy)-5,5-dimethyl-6H-benzo[h]quinazolin-7-yl]-methyl-amino]ethanol] | < 100 nM | < 50% | > 50% | < 100 nM | < 30 nM |  | 
3 | CCNc1c(O[C@H]2CC[C@H](N)CC2)ccc2c1CC(C)(C)c1c(N)ncnc1-2 [Example 8, 8-(trans-4-aminocyclohexoxy)-N7-ethyl-5,5-dimethyl-6H-benzo[h]quinazoline-4,7-diamine] | < 100 nM | < 50% | > 50% | 100 to 2000 nM | 30 to 100 nM |  | 
4 | CC1(C)Cc2c(ccc(O[C@H]3CC[C@H](N)CC3)c2N2CCC(O)C2)-c2ncnc(N)c21 (single isomer, unassigned) [Example 16, 1-[4-amino-8-(trans-4-aminocyclohexoxy)-5,5-dimethyl-6H-benzo[h]quinazolin-7-yl]pyrrolidin-3-ol] |  | > 50% | > 50% |  | < 30 nM | < 100 nM | < 100 nM
5 | CCN(CC)c1c(O[C@H]2CC[C@H](N)CC2)ccc2c1CC(C)(C)c1c(N)ncnc1-2 [Example 7, 8-(trans-4-aminocyclohexoxy)-N7,N7-diethyl-5,5-dimethyl-6H-benzo[h]quinazoline-4,7-diamine] | 100 to 2000 nM | > 50% | > 50% | 100 to 2000 nM | < 30 nM |  | 
6 | CCOCCN(C)c1c(O[C@H]2CC[C@H](N)CC2)ccc2c1CC(C)(C)c1c(N)ncnc1-2 [Example 36, 8-(trans-4-aminocyclohexoxy)-N7-(2-ethoxyethyl)-N7,5,5-trimethyl-6H-benzo[h]quinazoline-4,7-diamine] | 100 to 2000 nM |  |  | 100 to 2000 nM | 101 to 1000 nM |  | 
7 | CN(c1c(O[C@H]2CC[C@H](N)CC2)ccc2c1CC(C)(C)c1c(N)ncnc1-2)S(=O)(=O)CCO [Example 44, N-[4-amino-8-(4-trans-aminocyclohexoxy)-5,5-dimethyl-6H-benzo[h]quinazolin-7-yl]-2-hydroxy-N-methyl-ethanesulfonamide] | 100 to 2000 nM |  |  | 100 to 2000 nM | < 30 nM |  | 
8 | COC1CCN(c2c(O[C@H]3CC[C@H](N)CC3)ccc3c2CC(C)(C)c2c(N)ncnc2-3)C1 (single isomer, unassigned) [Example 73, 8-(trans-4-aminocyclohexoxy)-7-(3-methoxypyrrolidin-1-yl)-5,5-dimethyl-6H-benzo[h]quinazolin-4-amine] |  |  |  |  | 30 to 100 nM | < 100 nM | < 100 nM
9 | CN(C)CCOc1ccc2c(c1N(C)CCC#N)CC(C)(C)c1c(N)ncnc1-2 [Example 123, 3-[[4-amino-8-[2-(dimethylamino)ethoxy]-5,5-dimethyl-6H-benzo[h]quinazolin-7-yl]-methyl-amino]propanenitrile] | < 100 nM |  |  | < 100 nM | < 30 nM |  | 
10 | CN(c1c(O[C@H]2CC[C@H](N)CC2)ccc2c1CC(C)(C)c1c(N)ncnc1-2)S(=O)(=O)CCC#N [Example 74, N-[4-amino-8-(trans-4-aminocyclohexoxy)-5,5-dimethyl-6H-benzo[h]quinazolin-7-yl]-2-cyano-N-methyl-ethanesulfonamide] | < 100 nM |  |  | 100 to 2000 nM | < 30 nM |  | 
11 | COc1ccc2c(c1N(C)CCC#N)CC(C)(C)c1c(N)ncnc1-2 [Example 95, 3-[(4-amino-8-methoxy-5,5-dimethyl-6H-benzo[h]quinazolin-7-yl)-methyl-amino]propanenitrile] | < 100 nM |  |  | < 100 nM | < 30 nM |  | 
12 | CC1(C)Cc2c(ccc(Br)c2NC[C@@H]2CN(CCO)C(=O)O2)-c2ncnc(N)c21 [Example 127, (5R)-5-[[(4-amino-8-bromo-5,5-dimethyl-6H-benzo[h]quinazolin-7-yl)amino]methyl]-3-(2-hydroxyethyl)oxazolidin-2-one] | 100 to 2000 nM |  |  | 100 to 2000 nM | 30 to 100 nM |  | 
13 | C/C(=C\CO)c1c(O[C@H]2CC[C@H](N)CC2)ccc2c1CC(C)(C)c1c(N)ncnc1-2 [Example 98, (E)-3-[4-amino-8-(trans-4-aminocyclohexoxy)-5,5-dimethyl-6H-benzo[h]quinazolin-7-yl]but-2-en-1-ol] | < 100 nM |  |  | 100 to 2000 nM | < 30 nM |  | 
14 | CC(=O)NCCN(C)c1c(O[C@H]2CC[C@H](N)CC2)ccc2c1CC(C)(C)c1c(N)ncnc1-2 [Example 38, N-[2-[[4-amino-8-(trans-4-aminocyclohexoxy)-5,5-dimethyl-6H-benzo[h]quinazolin-7-yl]-methyl-amino]ethyl]acetamide] | 100 to 2000 nM |  |  | > 2000 nM | 30 to 100 nM |  | 
15 | CC(C)CCN(C)c1c(O[C@H]2CC[C@H](N)CC2)ccc2c1CC(C)(C)c1c(N)ncnc1-2 [Example 104, 8-(trans-4-aminocyclohexoxy)-N7-isopentyl-N7,5,5-trimethyl-6H-benzo[h]quinazoline-4,7-diamine] | 100 to 2000 nM |  |  | > 2000 nM | 101 to 1000 nM |  | 
16 | CN(CCN)c1c(O[C@H]2CC[C@H](N)CC2)ccc2c1CC(C)(C)c1c(N)ncnc1-2 [Example 80, 8-(trans-4-aminocyclohexoxy)-N7-(2-aminoethyl)-N7,5,5-trimethyl-6H-benzo[h]quinazoline-4,7-diamine] | 100 to 2000 nM |  |  | 100 to 2000 nM | < 30 nM |  | 
17 | COCCCc1c(OC)ccc2c1CC(C)(C)c1c(N)ncnc1-2 [Example 61, 8-methoxy-7-(3-methoxypropyl)-5,5-dimethyl-6H-benzo[h]quinazolin-4-amine] | 100 to 2000 nM |  |  | 100 to 2000 nM | 101 to 1000 nM |  | 
18 | CC(=O)Nc1c(O[C@H]2CC[C@H](N)CC2)ccc2c1CC(C)(C)c1c(N)ncnc1-2 [Example 6, N-[4-amino-8-(trans-4-aminocyclohexoxy)-5,5-dimethyl-6H-benzo[h]quinazolin-7-yl]acetamide] | 100 to 2000 nM |  |  | > 2000 nM | 101 to 1000 nM |  | 
